Assays:
[1] = Oxidation stability after gamma irradiation and aging, by FTIR oxidation index; assay type: physicochemical; conditions: 0.5 weight % in UHMWPE
Procedure: UHMWPE GUR 1050 (Ticona Inc, Bayport, Tex., USA) in powder form was mixed with 0.5 weight % of Lipoic Acid in powder form (Talamonti, Italy, stock n. 1050919074). The mixture was then moulded in a cell at 160° C. and at a pressure of 200 MPa.
A comparative sample was made with the same UHMWPE GUR 1050 only, namely without mixing it with lipoic acid.
Each sample of UHMWPE, virgin and doped with lipoic acid, was gamma irradiated to a dose of 30 kGy (Isomedix, Northborough, Mass.), then was processed into cylindrical pins of 20 mm length and 9 mm diameter.
Each sample, virgin and doped, was then aged at 80° C. in a convection oven for 5 weeks, in air (ASTM standard F2003-02). After aging and oxidation, thin sections of […] thickness of each sample were prepared using a Leitz Wetzlar Sledge Microtome (Leica, Nussloch, Germany). The irradiated and aged sections of cylindrical pins samples were then analysed by means of Fourier Transform Infrared Spectroscopy (FTIR). The IR analysis was performed using a Nicolet Magna 860 spectrometer.
The effect of aging on the oxidation of virgin UHMWPE and UHMWPE doped with lipoic acid is shown in FIG. 2 and FIG. 3, respectively. An oxidation index OI was defined as the ratio of the area under 1740 cm^−1 carbonyl and 1370 cm^−1 methylene absorbance peaks.

[2] = cited from earlier work
[3] = Thermal stability of Lipoic Acid inside UHMWPE, by FTIR spectra; assay type: physicochemical; conditions: UHMWPE with 0.5% wt lipoic acid heated at 150° C. for 2 hours or 200° C. for 24 hours
Procedure: UHMWPE GUR 1050 (Ticona Inc, Bayport, Tex., USA) in powder form was mixed with 0.5 weight % of Lipoic Acid in powder form (Talamonti, Italy, stock n. 1050919074). The mixture was then moulded in a cell at 160° C. and at a pressure of 200 MPa. The purpose of these examples was to investigate the presence and stability of Lipoic Acid inside UHMWPE with which it was pre-mixed. UHMWPE commonly melts at 138° C., but Lipoic Acid melts at about 65° C. Therefore, to check the Lipoic Acid stability into the UHMWPE at high temperatures a Lipoic Acid-doped UHMWPE was tested at 150° C. and 200° C. […] Line B represents the spectrum of UHMWPE doped with LA, heated at 150° C. for 2 hours, then cooled at room temperature, in which the spectrum of pure UHMWPE was detracted as baseline.

stability of Lipoic Acid (FTIR spectrum) [3]: substantially unchanged | stability of Lipoic Acid (FTIR spectrum) ([3]; listed as lipoic acid): stable
SMILES: O=C(O)CCCCC1CCSS1 (centres unmarked) [Lipoic Acid, Lipoic acid]
antioxidant effectiveness in UHMWPE [1]: effective as antioxidant | toxicity on human beings ([2]; 100 to 600 mg/day for 3 to 6 months): low toxicity | side effects ([2]; dose of 50 mg/day): no side effect reported
